This is an account of results in paper PMC8812569, “A widely distributed phosphate-insensitive phosphatase presents a route for rapid organophosphorus remineralization in the biosphere” (Proceedings of the National Academy of Sciences of the …, 2022).

Holding throughout (assay): pNP release at […] nm in whole cells of complemented P. putida phoX mutant
In one assay the target is T1, PafA^Fj (Flavobacterium johnsoniae, UniProt A5FP14).
T1 construct: gene Fjoh_0023; full gene expressed from pBBR1MCS-km in P. putida BIRD-1 phoX mutant; whole-cell assay
T1 sequence (A5FP14 19-539): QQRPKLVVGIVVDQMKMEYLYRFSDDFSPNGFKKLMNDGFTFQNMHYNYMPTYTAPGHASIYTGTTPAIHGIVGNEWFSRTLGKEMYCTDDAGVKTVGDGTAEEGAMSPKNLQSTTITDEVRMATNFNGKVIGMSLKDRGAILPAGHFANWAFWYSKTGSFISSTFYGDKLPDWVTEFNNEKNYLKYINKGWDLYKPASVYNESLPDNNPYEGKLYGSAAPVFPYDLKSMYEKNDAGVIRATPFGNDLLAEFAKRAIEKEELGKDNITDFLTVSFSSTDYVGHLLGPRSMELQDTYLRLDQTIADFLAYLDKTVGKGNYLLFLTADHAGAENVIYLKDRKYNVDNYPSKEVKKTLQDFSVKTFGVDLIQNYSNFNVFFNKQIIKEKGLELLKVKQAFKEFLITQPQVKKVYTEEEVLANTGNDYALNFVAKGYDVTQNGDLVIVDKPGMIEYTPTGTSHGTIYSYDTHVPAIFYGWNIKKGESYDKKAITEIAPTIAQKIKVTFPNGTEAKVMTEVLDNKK
It is filed as cell-based. The settings on record: 10 mM pNPP; growth medium or Tris-HCl pH 9.4; 28 °C.

For the next assay, the target named is T2, PhoA^Ec (Escherichia coli, UniProt P00634).
T2 construct: full gene expressed in P. putida BIRD-1 phoX mutant; whole-cell assay
It is filed as cell-based, Pseudomonas putida. The settings on record: 10 mM pNPP; growth medium or Tris-HCl pH 9.4; 28 °C.

A further assay addresses T3, PafA^Cp2 (Chitinophaga pinensis, UniProt A0A979G1Z1).
T3 construct: gene Cpin_1665; synthesized gene expressed in P. putida BIRD-1 phoX mutant; whole-cell assay
T3 sequence (A0A979G1Z1 29-568): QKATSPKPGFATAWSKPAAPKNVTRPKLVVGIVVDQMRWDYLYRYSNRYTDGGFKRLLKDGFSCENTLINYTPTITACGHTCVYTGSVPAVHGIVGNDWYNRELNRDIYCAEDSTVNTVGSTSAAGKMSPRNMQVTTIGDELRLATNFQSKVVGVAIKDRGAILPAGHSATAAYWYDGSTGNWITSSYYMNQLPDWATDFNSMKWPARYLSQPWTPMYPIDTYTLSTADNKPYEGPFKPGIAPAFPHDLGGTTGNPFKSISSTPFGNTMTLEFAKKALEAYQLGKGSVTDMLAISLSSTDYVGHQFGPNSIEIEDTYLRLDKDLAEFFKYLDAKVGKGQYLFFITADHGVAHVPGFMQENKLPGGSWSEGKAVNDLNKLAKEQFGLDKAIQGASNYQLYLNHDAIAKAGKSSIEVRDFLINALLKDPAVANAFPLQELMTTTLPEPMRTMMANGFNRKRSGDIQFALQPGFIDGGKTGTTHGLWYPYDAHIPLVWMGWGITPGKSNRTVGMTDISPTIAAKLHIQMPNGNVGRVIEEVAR
It is filed as cell-based. To be noted: 10 mM pNPP.

The target in the next assay is T4, PhoA2^Fj (Flavobacterium johnsoniae, UniProt A5FF14).
T4 construct: gene Fjoh_3187; full gene expressed from pBBR1MCS-km in P. putida BIRD-1 phoX mutant; whole-cell assay
T4 sequence (A5FF14 27-468): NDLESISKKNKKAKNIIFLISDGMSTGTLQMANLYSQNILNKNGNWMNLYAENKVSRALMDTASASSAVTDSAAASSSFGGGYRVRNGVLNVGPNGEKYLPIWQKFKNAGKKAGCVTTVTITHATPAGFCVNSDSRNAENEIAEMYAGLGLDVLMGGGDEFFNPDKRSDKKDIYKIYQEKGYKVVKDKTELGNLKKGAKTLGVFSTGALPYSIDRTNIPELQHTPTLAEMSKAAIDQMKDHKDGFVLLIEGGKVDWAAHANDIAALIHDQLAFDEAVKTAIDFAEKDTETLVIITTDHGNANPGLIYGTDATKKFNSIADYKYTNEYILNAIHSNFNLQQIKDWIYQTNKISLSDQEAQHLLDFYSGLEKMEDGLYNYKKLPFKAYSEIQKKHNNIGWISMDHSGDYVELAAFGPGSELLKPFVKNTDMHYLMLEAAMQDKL
It is filed as cell-based. To be noted: 10 mM pNPP; growth medium or Tris-HCl pH 9.4; 28 °C.

The target of a further assay is T5, PafA^Cp1 (Chitinophaga pinensis, UniProt A0A979GMC5).
T5 construct: gene Cpin_0724; synthesized gene expressed in P. putida BIRD-1 phoX mutant; whole-cell assay
T5 sequence (A0A979GMC5 26-545): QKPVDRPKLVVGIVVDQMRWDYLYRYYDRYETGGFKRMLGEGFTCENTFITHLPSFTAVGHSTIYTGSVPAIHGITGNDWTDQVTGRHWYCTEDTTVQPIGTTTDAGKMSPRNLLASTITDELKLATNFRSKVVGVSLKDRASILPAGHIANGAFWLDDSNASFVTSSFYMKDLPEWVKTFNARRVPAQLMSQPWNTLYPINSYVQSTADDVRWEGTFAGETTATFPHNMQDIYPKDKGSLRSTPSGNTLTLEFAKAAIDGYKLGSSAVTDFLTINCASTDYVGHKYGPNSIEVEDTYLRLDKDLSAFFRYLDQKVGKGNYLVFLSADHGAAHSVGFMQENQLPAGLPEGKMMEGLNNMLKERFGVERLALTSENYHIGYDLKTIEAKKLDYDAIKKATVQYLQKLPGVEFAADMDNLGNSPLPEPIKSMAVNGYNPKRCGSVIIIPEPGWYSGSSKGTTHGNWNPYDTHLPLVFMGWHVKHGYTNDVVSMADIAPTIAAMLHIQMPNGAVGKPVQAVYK
It is filed as cell-based. To be noted: 10 mM pNPP.

A further assay has as its target T6, PhoA1^Fj (Flavobacterium johnsoniae, UniProt A5FEV6).
T6 construct: gene Fjoh_3249; full gene expressed from pBBR1MCS-km in P. putida BIRD-1 phoX mutant; whole-cell assay
T6 sequence (A5FEV6 19-607): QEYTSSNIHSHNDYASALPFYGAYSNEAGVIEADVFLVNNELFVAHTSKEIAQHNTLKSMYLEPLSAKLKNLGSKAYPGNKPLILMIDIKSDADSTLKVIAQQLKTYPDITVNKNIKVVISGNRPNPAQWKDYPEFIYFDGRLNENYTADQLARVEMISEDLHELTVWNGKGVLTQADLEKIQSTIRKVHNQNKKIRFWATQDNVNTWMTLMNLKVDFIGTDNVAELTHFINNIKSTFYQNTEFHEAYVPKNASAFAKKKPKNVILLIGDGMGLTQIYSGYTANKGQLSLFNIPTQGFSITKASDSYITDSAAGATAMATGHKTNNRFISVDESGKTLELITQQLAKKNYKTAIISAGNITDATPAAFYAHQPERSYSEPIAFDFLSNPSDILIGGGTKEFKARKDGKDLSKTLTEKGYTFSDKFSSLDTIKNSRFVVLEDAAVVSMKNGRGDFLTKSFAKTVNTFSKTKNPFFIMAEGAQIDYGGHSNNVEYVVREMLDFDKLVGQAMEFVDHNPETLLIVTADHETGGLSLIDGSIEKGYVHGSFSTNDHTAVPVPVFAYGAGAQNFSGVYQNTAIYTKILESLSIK
It is filed as cell-based, Pseudomonas putida. The settings on record: 10 mM pNPP; growth medium or Tris-HCl pH 9.4; 28 °C.

T2 sequence (P00634 22-471): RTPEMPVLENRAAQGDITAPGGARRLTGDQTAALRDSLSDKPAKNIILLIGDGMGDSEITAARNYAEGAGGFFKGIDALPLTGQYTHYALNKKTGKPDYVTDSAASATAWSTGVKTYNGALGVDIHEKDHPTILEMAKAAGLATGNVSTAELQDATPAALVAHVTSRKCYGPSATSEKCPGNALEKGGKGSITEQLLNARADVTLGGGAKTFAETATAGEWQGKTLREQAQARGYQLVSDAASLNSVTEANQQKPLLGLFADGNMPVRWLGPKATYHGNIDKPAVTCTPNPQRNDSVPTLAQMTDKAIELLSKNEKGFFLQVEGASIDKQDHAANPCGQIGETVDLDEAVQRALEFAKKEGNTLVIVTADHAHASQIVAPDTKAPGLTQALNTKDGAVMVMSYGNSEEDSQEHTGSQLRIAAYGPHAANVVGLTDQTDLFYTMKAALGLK

Turning to `O=[N+]([O-])c1ccc(OP(=O)(O)O)cc1` [para-nitrophenyl phosphate], the PME activity result on PafA^Fj is listed as “or PafA^Fj (+pBXpafA^Fj) also restored PME activity, confirming their function as PMEs”; at PhoA^Ec, “Plasmid copies of either phoX^BIRD (+pBXphoX^BIRD) or the E. coli phoA (+pBXphoA^Ec) restored PME activity”; on PafA^Cp2, “demonstrating both are functional Pi-insensitive PMEs”; at PhoA2^Fj, “cells producing PhoA1^Fj (+pBXphoA1^Fj), PhoA2^Fj (+pBXphoA2^Fj), or PafA^Fj (+pBXpafA^Fj) also restored PME activity”; at PafA^Cp1, “demonstrating both are functional Pi-insensitive PMEs”; at PhoA1^Fj, “cells producing PhoA1^Fj (+pBXphoA1^Fj), PhoA2^Fj (+pBXphoA2^Fj), or PafA^Fj (+pBXpafA^Fj) also restored PME activity”.
